Laboratory results published in patent publication US20250223296A1, “HYDROXYMETHYL AZABICYCLO[2.2.1]HEPTANES AND MEDICAL USES THEREOF” (ATROGI AB, priority 2022, published 2025).

How the values were obtained:
[1] = system: L6-myotubes; assay: Glucose uptake (3H-2-deoxyglucose) in differentiated L6-myotubes; assay type: cell-based; conditions: compound at 10 µM (1×10^−5 M) vs isoproterenol at 10 µM, read-out: Biological example 1: glucose uptake, activity compared to that of isoproterenol
Experimental: L6-myoblasts were grown in Dulbecco's Modified Eagle's Medium (DMEM) containing 1 g/L glucose supplemented with 10% fetal bovine serum, 2 mM L-Glutamine, 50 U/ml penicillin, 50 μg/mL streptomycin and 10 mM HEPES. Cells were plated at 1×10^5 cells per mL in 24-well plates. After reaching 90% confluence the cells were grown in medium containing 2% FBS for 7 days where upon cells differentiated into myotubes. Differentiated L6-myotubes were serum-starved overnight in medium containing 0.5% fatty-acid free BSA and stimulated with an agonist, with a final concentration of 1×10^−5 M. After 1 h 40 min the cells were washed with warm glucose free medium or PBS twice and another portion of agonist was added to the glucose free medium. After 20 min the cells were exposed to 50 nM ^3H-2-deoxyglucose for another 10 min before washed in ice cold glucose free medium or PBS three times and lysed in 400 μL/well 0.2 M NaOH for 1 h at 60° C. The cell lysate was mixed with 4 mL scintillation buffer (Emulsifier Safe, Perkin Elmer) and the radioactivity was detected in a β-counter (Tri-Carb 4810TR, Perkin Elmer). The activity for each compound is compared to that of isoproterenol.

[2] = system: L6-myotubes; assay: Measurement of intracellular cAMP levels in differentiated L6 cells; assay type: cell-based; conditions: Rattus norvegicus, L6, 0.25 h, compound at 10 µM (1×10^−5 M), 15 min, vs isoproterenol at 10 µM, read-out: Biological example 2: intracellular cAMP levels, activity compared to that of isoproterenol
Experimental: L6-myoblasts were grown in Dulbecco's Modified Eagle's Medium (DMEM) containing 1 g/L glucose supplemented with 10% fetal bovine serum, 2 mM L-Glutamine, 50 U/ml penicillin, 50 μg/mL streptomycin and 10 mM HEPES. Cells were plated at 1×10^5 cells per mL in 24-well plates. After reaching 90% confluence the cells were grown in medium containing 2% FBS for 7 days where upon cells differentiated into myotubes. Differentiated cells were serum-starved overnight and stimulated with an agonist, final concentration 1×10^−5 M, for 15 min in stimulation buffer (HBSS supplemented with 1% BSA, 5 mM HEPES and 1 mM IBMX, pH 7.4). The medium was aspirated and 100 μL of 95% EtOH was added to each well of the 24-well plate and cells were kept at −20° C. overnight. The EtOH was allowed to evaporate and 500 μL of lysis buffer (1% BSA, 5 mM HEPES and 0.3% Tween-20, pH 7.4) was added to each well. The plate was kept at −80° C. for 30 min and then at −20° C. until the day of detection when the samples were thawed. Intracellular cAMP levels were detected using an alpha screen CAMP kit (6760635D from Perkin Elmer). The activity for each compound is compared to that of isoproterenol.

O[C@H](c1cccc(F)c1)C12CCC(COCc3ccc(Cl)cc3)(CC1)N2 [Example 1, (R)-(4-(((4-Chlorobenzyl)oxy)methyl)-7-azabicyclo[2.2.1]heptan-1-yl)(3-fluorophenyl)methanol]
Emax at 10 µM [1]: > 75% | Emax at 10 µM [2]: < 25%

O[C@@H](c1cccc(F)c1)C12CCC(COCc3ccc(Cl)cc3)(CC1)N2 [Example 2, (S)-(4-(((4-Chlorobenzyl)oxy)methyl)-7-azabicyclo[2.2.1]heptan-1-yl)(3-fluorophenyl)methanol]
Emax at 10 µM [1]: 50 to 75% | Emax at 10 µM [2]: < 25%

O[C@H](c1cccc(F)c1)C12CCC(COCc3ccc(F)cc3)(CC1)N2 [Example 3, (R)-(4-(((4-Fluorobenzyl)oxy)methyl)-7-azabicyclo[2.2.1]heptan-1-yl)(3-fluorophenyl)methanol]
Emax at 10 µM [1]: > 75% | Emax at 10 µM [2]: 25 to 50%

O[C@@H](c1cccc(F)c1)C12CCC(COCc3ccc(F)cc3)(CC1)N2 [Example 4, (S)-(4-(((4-Fluorobenzyl)oxy)methyl)-7-azabicyclo[2.2.1]heptan-1-yl)(3-fluorophenyl)methanol]
Emax at 10 µM [1]: 25 to 50% | Emax at 10 µM [2]: < 25%

O[C@H](c1cncc(F)c1)C12CCC(COCc3ccc(F)cc3)(CC1)N2 [Example 5, (R)-(4-(((4-Fluorobenzyl)oxy)methyl)-7-azabicyclo[2.2.1]heptan-1-yl)(5-fluoropyridin-3-yl)methanol]
Emax at 10 µM [1]: > 75% | Emax at 10 µM [2]: 25 to 50%

O[C@@H](c1cncc(F)c1)C12CCC(COCc3ccc(F)cc3)(CC1)N2 [Example 6, (S)-(4-(((4-Fluorobenzyl)oxy)methyl)-7-azabicyclo[2.2.1]heptan-1-yl)(5-fluoropyridin-3-yl)methanol]
Emax at 10 µM [1]: 50 to 75% | Emax at 10 µM [2]: < 25%

O[C@H](c1cccc(F)c1)C12CCC(Cc3ccccc3)(CC1)N2 [Example 7, (R)-(4-Benzyl-7-azabicyclo[2.2.1]heptan-1-yl)(3-fluorophenyl)methanol]
Emax at 10 µM [1]: > 75% | Emax at 10 µM [2]: 25 to 50%

O[C@@H](c1cccc(F)c1)C12CCC(Cc3ccccc3)(CC1)N2 [Example 8, (S)-(4-Benzyl-7-azabicyclo[2.2.1]heptan-1-yl)(3-fluorophenyl)methanol]
Emax at 10 µM [1]: 50 to 75% | Emax at 10 µM [2]: < 25%

COc1ccc(CC23CCC([C@H](O)c4cccc(F)c4)(CC2)N3)cc1 [Example 9, (R)-(3-Fluorophenyl)(4-(4-methoxybenzyl)-7-azabicyclo[2.2.1]heptan-1-yl)methanol]
Emax at 10 µM [1]: > 75% | Emax at 10 µM [2]: < 25%

COc1ccc(CC23CCC([C@@H](O)c4cccc(F)c4)(CC2)N3)cc1 [Example 10, (S)-(3-Fluorophenyl)(4-(4-methoxybenzyl)-7-azabicyclo[2.2.1]heptan-1-yl)methanol]
Emax at 10 µM [1]: 50 to 75% | Emax at 10 µM [2]: < 25%

O[C@H](c1cccc(F)c1)C12CCC(Cc3ccc(F)cc3)(CC1)N2 [Example 11, (R)-(4-(4-Fluorobenzyl)-7-azabicyclo[2.2.1]heptan-1-yl)-(3-fluoro-phenyl)methanol]
Emax at 10 µM [1]: > 75% | Emax at 10 µM [2]: < 25%

O[C@@H](c1cccc(F)c1)C12CCC(Cc3ccc(F)cc3)(CC1)N2 [Example 12, (S)-(4-(4-Fluorobenzyl)-7-azabicyclo[2.2.1]heptan-1-yl)-(3-fluorophenyl)methanol]
Emax at 10 µM [1]: 50 to 75% | Emax at 10 µM [2]: < 25%

CO[C@H]1CC[C@H](CCC23CCC([C@H](O)c4cccc(F)c4)(CC2)N3)CC1 [Example 13, (R)-(3-Fluorophenyl)(4-(2-(trans-4-methoxycyclohexyl)ethyl)-7-azabicyclo[2.2.1]heptan-1-yl)methanol]
Emax at 10 µM [1]: > 75% | Emax at 10 µM [2]: 50 to 75%

CO[C@H]1CC[C@H](CCC23CCC([C@@H](O)c4cccc(F)c4)(CC2)N3)CC1 [Example 14, (S)-(3-Fluorophenyl)(4-(2-((trans)-4-methoxycyclohexyl)ethyl)-7-aza-bicyclo[2.2.1]heptan-1-yl)methanol]
Emax at 10 µM [1]: 50 to 75% | Emax at 10 µM [2]: < 25%

O[C@H](c1cccc(F)c1)C12CCC(COCc3ccc(OC(F)(F)F)cc3)(CC1)N2 [Example 15, (R)-(3-Fluorophenyl)(4-(((4-(trifluoromethoxy)benzyl)oxy)methyl)-7-azabicyclo[2.2.1]heptan-1-yl)methanol]
Emax at 10 µM [1]: < 25% | Emax at 10 µM [2]: < 25%

O[C@@H](c1cccc(F)c1)C12CCC(COCc3ccc(OC(F)(F)F)cc3)(CC1)N2 [Example 16]
Emax at 10 µM [1]: < 25% | Emax at 10 µM [2]: < 25%

O[C@H](c1cncc(F)c1)C12CCC(COCc3ccc(OC(F)(F)F)cc3)(CC1)N2 [Example 17, (R)-(5-Fluoropyridin-3-yl)(4-(((4-(trifluoromethoxy)benzyl)oxy)-methyl)-7-azabicyclo[2.2.1]heptan-1-yl)methanol]
Emax at 10 µM [1]: 50 to 75% | Emax at 10 µM [2]: < 25%

O[C@@H](c1cncc(F)c1)C12CCC(COCc3ccc(OC(F)(F)F)cc3)(CC1)N2 [Example 18, (S)-(5-Fluoropyridin-3-yl)(4-(((4-(trifluoromethoxy)benzyl)oxy)methyl)-7-azabicyclo[2.2.1]heptan-1-yl)methanol]
Emax at 10 µM [1]: < 25% | Emax at 10 µM [2]: < 25%

O[C@H](c1cccc(F)c1)C12CCC(Cc3ccc(OC(F)(F)F)cc3)(CC1)N2 [Example 19, (R)-(3-Fluorophenyl)(4-(4-(trifluoromethoxy)benzyl)-7-azabicyclo-[2.2.1]heptan-1-yl)methanol]
Emax at 10 µM [1]: < 25% | Emax at 10 µM [2]: < 25%

O[C@@H](c1cccc(F)c1)C12CCC(Cc3ccc(OC(F)(F)F)cc3)(CC1)N2 [Example 20, (S)-(3-Fluorophenyl)(4-(4-(trifluoromethoxy)benzyl)-7-azabicyclo-[2.2.1]heptan-1-yl)methanol]
Emax at 10 µM [1]: < 25% | Emax at 10 µM [2]: < 25%

CS(=O)(=O)N(Cc1ccccc1)c1ccc(CC23CCC([C@H](O)c4cccc(F)c4)(CC2)N3)cc1 [Example 21]
Emax at 10 µM [1]: 25 to 50% | Emax at 10 µM [2]: < 25%

CS(=O)(=O)N(Cc1ccccc1)c1ccc(CC23CCC([C@@H](O)c4cccc(F)c4)(CC2)N3)cc1 [Example 22, N-Benzyl-N-(4-((4-((S)-(3-fluorophenyl)(hydroxy)methyl)-7-aza-bicyclo[2.2.1]heptan-1-yl)methyl)phenyl)methanesulfonamide]
Emax at 10 µM [1]: 25 to 50% | Emax at 10 µM [2]: < 25%

CS(=O)(=O)N(Cc1ccccc1)c1cccc(CC23CCC([C@H](O)c4cccc(F)c4)(CC2)N3)c1 [Example 23, N-Benzyl-N-(3-((4-((R)-(3-fluorophenyl)(hydroxy)methyl)-7-aza-bicyclo[2.2.1]heptan-1-yl)methyl)phenyl)methanesulfonamide]
Emax at 10 µM [1]: 50 to 75% | Emax at 10 µM [2]: < 25%

CS(=O)(=O)N(Cc1ccccc1)c1cccc(CC23CCC([C@@H](O)c4cccc(F)c4)(CC2)N3)c1 [Example 24, N-Benzyl-N-(3-((4-((S)-(3-fluorophenyl)(hydroxy)methyl)-7-aza-bicyclo[2.2.1]heptan-1-yl)methyl)phenyl)methanesulfonamide]
Emax at 10 µM [1]: 50 to 75% | Emax at 10 µM [2]: < 25%

CS(=O)(=O)Nc1ccc(CC23CCC([C@H](O)c4cccc(F)c4)(CC2)N3)cc1 [Example 25, N-(4-((4-((R)-(3-Fluorophenyl)(hydroxy)methyl)-7-azabicyclo[2.2.1]-heptan-1-yl)methyl)phenyl)methanesulfonamide]
Emax at 10 µM [1]: 50 to 75% | Emax at 10 µM [2]: < 25%

CS(=O)(=O)Nc1ccc(CC23CCC([C@@H](O)c4cccc(F)c4)(CC2)N3)cc1 [Example 26, N-(4-((4-((S)-(3-Fluorophenyl)(hydroxy)methyl)-7-azabicyclo[2.2.1]-heptan-1-yl)methyl)phenyl)methanesulfonamide]
Emax at 10 µM [1]: 50 to 75% | Emax at 10 µM [2]: < 25%

CS(=O)(=O)Nc1cccc(CC23CCC([C@H](O)c4cccc(F)c4)(CC2)N3)c1 [Example 27, N-(3-((4-((R)-(3-Fluorophenyl)(hydroxy)methyl)-7-azabicyclo-[2.2.1]heptan-1-yl)methyl)phenyl)methanesulfonamide]
Emax at 10 µM [1]: 50 to 75% | Emax at 10 µM [2]: < 25%

CS(=O)(=O)Nc1cccc(CC23CCC([C@@H](O)c4cccc(F)c4)(CC2)N3)c1 [Example 28, N-(3-((4-((S)-(3-Fluorophenyl)(hydroxy)methyl)-7-azabicyclo[2.2.1]-heptan-1-yl)methyl)phenyl)methanesulfonamide]
Emax at 10 µM [1]: 50 to 75% | Emax at 10 µM [2]: < 25%
